Experimental data from patent publication US6642251B1, “Geometrically restricted 2-indolinone derivatives as modulators of protein kinase activity” (Sugen, Inc., priority 1998, dated 2003).
“And” between values parts separate entries of the source, which are not always exact repeats. Equal entries are not always repeated. Where two headings read alike, the source gives them in different places.

Key:
Pyk2 = Pyk2 (Homo sapiens, UniProt Q14289); assay: Pyk2 assay; assay type: biochemical; for Pyk2, outcome of primary assay: key: DNH = did not hit in primary assay
Pyk2, sequence (Q14289 whole entry, species assumed): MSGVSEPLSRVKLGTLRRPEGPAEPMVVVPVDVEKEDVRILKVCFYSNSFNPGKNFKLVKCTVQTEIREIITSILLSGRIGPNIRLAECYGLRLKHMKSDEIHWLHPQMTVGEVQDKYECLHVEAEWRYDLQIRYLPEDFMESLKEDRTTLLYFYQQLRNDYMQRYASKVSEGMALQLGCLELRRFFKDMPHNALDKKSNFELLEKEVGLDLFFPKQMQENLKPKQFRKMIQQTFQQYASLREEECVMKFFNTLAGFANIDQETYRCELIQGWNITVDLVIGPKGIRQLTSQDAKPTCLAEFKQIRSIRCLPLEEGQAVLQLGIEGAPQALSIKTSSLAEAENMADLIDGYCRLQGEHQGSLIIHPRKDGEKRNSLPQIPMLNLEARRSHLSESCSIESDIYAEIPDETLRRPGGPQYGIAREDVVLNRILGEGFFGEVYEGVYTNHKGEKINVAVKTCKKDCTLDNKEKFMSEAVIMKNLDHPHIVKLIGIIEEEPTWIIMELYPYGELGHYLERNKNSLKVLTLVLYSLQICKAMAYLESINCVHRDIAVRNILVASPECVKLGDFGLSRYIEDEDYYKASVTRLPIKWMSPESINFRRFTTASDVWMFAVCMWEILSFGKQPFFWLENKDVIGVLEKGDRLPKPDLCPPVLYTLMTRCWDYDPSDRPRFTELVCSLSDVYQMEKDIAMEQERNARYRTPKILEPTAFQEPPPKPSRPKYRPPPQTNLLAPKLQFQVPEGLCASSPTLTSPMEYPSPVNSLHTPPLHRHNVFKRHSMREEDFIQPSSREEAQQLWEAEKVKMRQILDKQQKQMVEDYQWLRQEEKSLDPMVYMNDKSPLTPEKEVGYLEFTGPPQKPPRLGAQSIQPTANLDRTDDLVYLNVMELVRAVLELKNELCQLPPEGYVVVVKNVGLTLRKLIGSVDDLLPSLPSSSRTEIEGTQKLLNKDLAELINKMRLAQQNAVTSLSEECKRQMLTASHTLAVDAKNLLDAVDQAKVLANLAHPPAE

PDGFR = molecular target: T1, PDGFR (Homo sapiens, UniProt P09619); assay: Biochemical PDGFR assay (bio PDGFR), ELISA
T1 construct: expressed in transfected cells; host or cells: NIH 3T3
T1 sequence (P09619 33-1106, species assumed): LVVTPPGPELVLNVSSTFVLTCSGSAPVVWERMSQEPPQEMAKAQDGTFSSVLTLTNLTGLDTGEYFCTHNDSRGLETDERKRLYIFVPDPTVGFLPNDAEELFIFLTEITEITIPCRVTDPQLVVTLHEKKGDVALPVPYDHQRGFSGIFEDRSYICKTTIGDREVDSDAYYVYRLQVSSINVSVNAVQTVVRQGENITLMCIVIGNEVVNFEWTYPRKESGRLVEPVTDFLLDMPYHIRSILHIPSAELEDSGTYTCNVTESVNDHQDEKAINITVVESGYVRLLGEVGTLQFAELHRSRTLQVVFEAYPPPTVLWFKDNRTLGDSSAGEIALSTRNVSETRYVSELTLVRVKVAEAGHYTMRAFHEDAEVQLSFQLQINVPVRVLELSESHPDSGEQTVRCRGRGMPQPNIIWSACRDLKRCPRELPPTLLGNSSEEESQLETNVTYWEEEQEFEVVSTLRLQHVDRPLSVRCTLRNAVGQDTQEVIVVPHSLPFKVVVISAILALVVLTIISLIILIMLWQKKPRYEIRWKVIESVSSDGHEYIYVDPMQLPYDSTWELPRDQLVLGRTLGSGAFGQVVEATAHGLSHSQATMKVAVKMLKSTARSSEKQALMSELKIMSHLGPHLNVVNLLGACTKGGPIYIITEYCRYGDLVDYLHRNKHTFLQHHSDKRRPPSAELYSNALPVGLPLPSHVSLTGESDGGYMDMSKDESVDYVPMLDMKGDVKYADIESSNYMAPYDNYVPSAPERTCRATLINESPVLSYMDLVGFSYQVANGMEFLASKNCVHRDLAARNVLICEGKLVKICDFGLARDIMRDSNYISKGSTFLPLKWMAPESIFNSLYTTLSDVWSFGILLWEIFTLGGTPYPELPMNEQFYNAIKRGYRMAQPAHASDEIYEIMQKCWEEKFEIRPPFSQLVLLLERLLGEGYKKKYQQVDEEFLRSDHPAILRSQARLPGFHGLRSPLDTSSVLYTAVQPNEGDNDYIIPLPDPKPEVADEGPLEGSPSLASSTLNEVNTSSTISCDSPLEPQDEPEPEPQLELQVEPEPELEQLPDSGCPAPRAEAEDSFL
Procedure: This assay measures the in vitro kinase activity of PDGFR using ELISA.
6. PDGFR-β expressing NIH 3T3 cell lysate (Screening Lab, SUGEN, Inc.).
1. Coat Corning 96 well ELISA plates with 0.5 μg 28D4C10 in 100 μl PBS per well, store overnight at 4° C.
2. Remove unbound 28D4C10 from wells by inverting plate to remove liquid. Wash 1× with dH2O. Pat the plate on a paper towel to remove excess liquid.
3. Add 150 μl of Blocking Buffer to each well. Incubate for 30 min. at room temperature with shaking.
4. Wash plate 3× with deionized water, then once with TBST. Pat plate on a paper towel to remove excess liquid and bubbles.
5. Dilute lysate in HNTG (10 μg lysate/100 μl HNTG)
6. Add 100 μl of diluted lysate to each well. Shake at room temperature for 60 min.
7. Wash plates as described in 4, above.
8. Add 80 μl working kinase buffer mix to ELISA plate containing captured PDGFR.
10. Add 10 μl diluted test compound to ELISA plate.
11. Incubate for 30 minutes while shaking at room temperature.
12. Add 10 μl ATP directly to all wells except negative control well (final well volume should be approximately 100 μl with 20 μM ATP in each well.) Incubate 30 minutes while shaking.
13. After 30 minutes, stop reaction by adding 10 μl of 200 mM EDTA (pH 8.0) to each well.
14. Wash 4× with deionized water, twice with TBST.
15. Add 100 μl anti-phosphotyrosine (1:3000 dilution in TBST) per well. Incubate 30-45 min. at room temperature, with shaking.
16. Wash as described in 4, above.
17. […] Incubate 30 min. at room temperature, with shaking.
18. Wash as described in 4, above.
19. Add 100 μl of ABTS/H2O2 solution to each well.
20. Incubate 10 to 30 minutes with shaking. Remove any bubbles.
21. If necessary stop reaction with the addition of 100 μl 0.2 M HCl per well.

human flk-1 = molecular target: T2, human flk-1 (Homo sapiens, UniProt P35968); assay: Biochemical FLK-1 assay (bio Flk), autophosphorylation ELISA
T2 construct: expressed in transfected cells; host or cells: NIH fibroblast line (Flk-1/NIH cells, clone 3)
T2 sequence (P35968 20-1356): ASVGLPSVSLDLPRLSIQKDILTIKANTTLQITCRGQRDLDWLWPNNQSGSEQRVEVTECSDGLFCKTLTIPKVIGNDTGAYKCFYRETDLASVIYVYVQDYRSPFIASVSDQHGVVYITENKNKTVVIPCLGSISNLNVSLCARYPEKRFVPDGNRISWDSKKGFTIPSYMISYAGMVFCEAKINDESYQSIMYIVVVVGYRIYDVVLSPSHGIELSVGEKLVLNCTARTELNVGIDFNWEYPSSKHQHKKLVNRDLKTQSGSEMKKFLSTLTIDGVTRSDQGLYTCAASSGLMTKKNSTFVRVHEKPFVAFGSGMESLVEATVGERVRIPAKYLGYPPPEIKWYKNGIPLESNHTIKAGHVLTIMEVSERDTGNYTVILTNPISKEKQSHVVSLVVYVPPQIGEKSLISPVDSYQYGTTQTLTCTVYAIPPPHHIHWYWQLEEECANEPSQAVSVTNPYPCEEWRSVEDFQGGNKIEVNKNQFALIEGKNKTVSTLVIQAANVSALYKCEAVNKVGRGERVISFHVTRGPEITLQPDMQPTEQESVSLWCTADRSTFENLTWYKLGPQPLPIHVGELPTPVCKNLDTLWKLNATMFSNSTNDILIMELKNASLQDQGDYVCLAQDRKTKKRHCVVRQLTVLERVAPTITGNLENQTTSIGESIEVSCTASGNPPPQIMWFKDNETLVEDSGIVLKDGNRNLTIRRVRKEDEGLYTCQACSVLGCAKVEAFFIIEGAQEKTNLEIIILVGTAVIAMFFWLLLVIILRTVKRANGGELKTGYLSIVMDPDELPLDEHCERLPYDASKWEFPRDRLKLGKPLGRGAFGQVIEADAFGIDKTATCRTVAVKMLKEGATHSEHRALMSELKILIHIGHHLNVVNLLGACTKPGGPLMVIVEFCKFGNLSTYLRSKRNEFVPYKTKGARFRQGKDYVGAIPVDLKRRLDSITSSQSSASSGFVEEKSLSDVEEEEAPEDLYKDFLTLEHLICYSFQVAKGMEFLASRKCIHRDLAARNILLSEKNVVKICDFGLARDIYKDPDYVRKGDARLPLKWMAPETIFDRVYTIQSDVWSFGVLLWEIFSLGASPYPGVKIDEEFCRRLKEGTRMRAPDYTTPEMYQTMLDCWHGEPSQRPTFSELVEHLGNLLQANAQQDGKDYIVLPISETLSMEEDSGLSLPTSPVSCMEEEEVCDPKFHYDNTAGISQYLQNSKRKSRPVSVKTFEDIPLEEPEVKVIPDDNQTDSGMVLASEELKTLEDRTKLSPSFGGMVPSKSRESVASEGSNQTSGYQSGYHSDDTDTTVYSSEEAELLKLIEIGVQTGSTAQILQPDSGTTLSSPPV
Procedure: This assay evaluates flk-1 autophosphorylation activity in vitro using ELISA.
1. Seed cell into growth medium and grow for 2-3 days to 90-100% confluency at 37° C. and 5% C)2.
2. Remove the medium and wash the cells twice with PBS. Lyse with HNTG lysis buffer. Collect all lysates and vortex mix them for 20-30 seconds.
3. Remove insoluble material by centrifugation (5-10 min at about 10,000×g).
4. Determine the protein concentration using BCA kit.
5. Partition lysate into 1 mg aliquots, store at −80° C.
1. Coat Corning 96-well ELISA plates with 2 μg/well purified L4 (or E 38) in 100 μl of PBS. Store overnight at 4° C.
2. Remove unbound proteins from wells by inverting the plate to remove the liquid. Wash one time with dH2O pat plate on paper towel to remove excess liquid.
3. Block plates with 150 μl blocking buffer per well. Incubate for 45-60 minutes with shaking at 4° C.
4. Remove the blocking buffer and wash the ELISA plate three times with dH2O and one time with TBST. Pat plate on paper towel to remove excess liquid.
5. Dilute lysate in PBS to give final concentration of 50 μg/100 μl. Add 100 μl of diluted lysate to each well. Incubate with shaking at 4° C. overnight.
6. Remove unbound proteins from wells by inverting the plate. Wash as in step 4.
7. Add 80 μl of kinase buffer to wells (90 μl to negative control wells).
8. Dilute test compounds (normally 10-fold) into wells of a polypropylene plate containing 20% DMSO in TBS.
9. Add 10 μl of the diluted compounds to the ELISA wells containing immobilized flk-1 and shake. Control wells receive no compounds.
10. From stock 1 mM ATP, prepare 0.3 mM ATP solution in dH20 (alternatively, kinase buffer may be used).
11. Add 10 μl of 0.3 mM ATP to all wells except the negative controls. Incubate for 60 min. at room temperature with shaking.
12. After 1 hr stop the kinase reaction by adding 11 μl 200 mM EDTA. Shake for 1-2 min.
13. Wash the ELISA plate 4 times with dH2O and twice with TBST.
14. Add 100 μl of 1:5000 biotinylated 4G10:TBST to all wells. Incubate 45 min with shaking at room temperature.
15. While the above is incubating, add 50 μl of solutions A & B from the ABC kit to 10 ml of TBST. These solutions must be combined approximately 30 min prior to use.
16. Wash plates as in step 4.
17. Add 100 μl of the preformed A & B complex to all wells. Incubate 30 min with shaking at room temperature.
18. Wash plates as in step 4.
19. Add 100 μl turbo-TMB. Shake at room temperature for 10-15 min.
20. When the color in the positive control wells reaches an absorbance of about 0.35-0.4, stop the reaction with 100 μl of turbo-TMB stop solution.

[1] = 50% inhibition of target PTK activity, read-out: bio PDGFR IC50
[2] = 50% inhibition of target PTK activity, read-out: bio Flk IC50
[3] = 50% inhibition of target PTK activity, read-out: Pyk2 IC50
[4] = bio PDGFR IC50, 50% inhibition of target PTK activity

| SMILES | Pyk2, outcome of primary assay (Pyk2) | IC50 (PDGFR; [1]) [µM] | IC50 (human flk-1; [2]) [µM] | IC50 (Pyk2; [3]) [µM] | Pyk2 % Inh (Pyk2; concentration not given) [%] | IC50 (PDGFR; [4]) | IC50 (human flk-1) [µM] | IC50 (Pyk2) [µM] |
| --- | --- | --- | --- | --- | --- | --- | --- | --- |
| COc1ccc2c(c1)CC/C2=C1/C(=O)Nc2ccccc21 [Compound 3, 3-(5-Methoxyindan-1-ylidene)-1,3-dihydroindol-2-one] | DNH |  |  |  | 56 | 86.9 µM | 2.6 |  |
| COc1cc2c(cc1OC)/C(=C1\C(=O)Nc3ccccc31)CC2 [Compound 12, 3-(5,6-Dimethoxyindan-1-ylidene)-1,3-dihydroindol-2-one] | DNH | > 25 | > 25 |  |  |  |  |  |
| COc1ccc2c(c1)C(CC(=O)[O-])CC2=C1C(=O)Nc2ccccc21.[Na+] (stereo not shown) [Compound 13, [6-Methoxy-3-(2-oxo-1,2-dihydroindol-3-ylidene)-indan-1-yl]acetic Acid Sodium Salt] |  |  |  |  |  | 1 µM and 3.2 µM |  | 4.5 |
| CC1C/C(=C2/C(=O)Nc3ccccc32)c2ccccc21 (stereo not shown) [Compound 1, 3-(3-methylindan-1-ylidene)-1,3-dihydroindol-2-one] |  | > 100 | 18.4 | > 100 |  |  |  |  |
| O=C1Nc2ccccc2/C1=C1\CCc2cc(Br)ccc21 [Compound 9, 3-(5-Bromoindan-1-ylidene)-1,3-dihydroindol-2-one] |  | > 100 | 2.9 |  |  |  |  |  |

Other lines, results leading:

| Pyk2, outcome of primary assay (Pyk2) | IC50 (PDGFR; [1]) [µM] | IC50 (human flk-1; [2]) [µM] | IC50 (Pyk2; [3]) [µM] | Pyk2 % Inh (Pyk2; concentration not given) [%] | IC50 (PDGFR; [4]) | IC50 (human flk-1) [µM] | IC50 (Pyk2) [µM] | SMILES |
| --- | --- | --- | --- | --- | --- | --- | --- | --- |
| DNH | > 100 | 4.3 |  |  |  |  |  | O=C1Nc2ccccc2/C1=C1\CCc2cc(N3CCCCC3)ccc21 [Compound 8, 3-(5-Piperidin-1-yl-indan-1-ylidene)-1,3-dihydroindol-2-one] |
|  | 1.5 | 0.02 | 9.3 |  |  |  |  | COc1ccc2c(c1)C(CC(=O)O)C/C2=C1/C(=O)Nc2ccccc21 (stereo not shown) [Compound 11, [6-Methoxy-3-(2-oxo-1,2-dihydroindol-3-ylidene)-indan-1-yl]acetic Acid] |
|  | 50.8 | 3.1 | 79.3 |  |  |  |  | CN(C)c1ccc2c(c1)CC/C2=C1/C(=O)Nc2ccccc21 [Compound 5, 3-(5-Dimethylaminoindan-1-ylidene)-1,3-dihydroindol-2-one] |
| DNH | > 100 | 7.1 |  |  |  |  |  | O=C1Nc2ccccc2/C1=C1\CCc2cc(Cl)ccc21 [Compound 7, 3-(5-Chloroindan-1-ylidene)-1,3-dihydroindol-2-one] |
| DNH | > 100 | 8.2 |  |  |  |  |  | Cc1cccc2c1CC/C2=C1/C(=O)Nc2ccccc21 [Compound 2, 3-(4-Methylindan-1-ylidene)-1,3-dihydroindol-2-one] |
|  | 63.7 | 1.4 |  |  |  |  |  | O=C1Nc2ccccc2/C1=C1\CCc2ccccc21 [Compound 10, 3-Indan-1-ylidene-1,3-dihydroindol-2-one] |
